Laboratory results: patent US20250177357A1, “METHODS FOR TREATING HYPERTROPHIC CARDIOMYOPATHY” (priority 2021, published 2025)

Columns and labels:
Assay type in all cases: in vivo, human
[1] = Phase 1 plasma pharmacokinetics, food-effect cohort; settings: single 10 mg
Method: Food-effect cohort. […] Participants were randomized in a 1:1 ratio to 1 of 2 sequences: fasted/fed or fed/fasted.
Pharmacokinetic analyses. For all study groups, blood samples for PK assessment were obtained pre-dose, up to 12 times daily on day 1, and then at regular intervals throughout the study. Blood samples were collected according to the following schedule: SAD Cohorts: Day 1: pre-dose and 0.25, 0.5, 1, 1.5, 2, 2.5, 3, 4, 6, 8, 12, 16, 24, 36, 48, 72, 96, and 216 h post dose. […] CYPD6-PM Cohort: Day 1: pre-dose and 0.25, 0.5, 1, 1.5, 2, 2.5, 3, 4, 6, 8, 12, 16, 24, 36, 48, 72, 96, 216, 312, and 552 h post dose. Food-Effect Cohort: Day 1: pre-dose and 0.25, 0.5, 1, 1.5, 2, 2.5, 3, 4, 6, 8, 12, 16, 24, 36, 48, 72, 96, 144, and 216 h post dose. Standard non-compartmental methods were used to calculate PK parameters using Phoenix® WinNonlin® Version 7.0; actual sample collection times were utilized.

[2] = test system: patients with symptomatic obstructive HCM (oHCM); experiment: Phase 2 trial in oHCM, Cohorts 1 and 2: echocardiography, NYHA class, biomarkers; settings: for Average ejection fraction: at 10 weeks
From the text: Cohort 3 included patients receiving disopyramide.
Since patient characteristics vary substantially in this disease, individualized dose titration to a pharmacodynamics (PD) response (reduction of the LVOT-G to <30 mmHg with preservation of LVEF>50%) was employed to maximize efficacy and safety.
Body weight was ≥45 kg at screening; 4. […] Adequate acoustic windows for echocardiography; 6. Had LVOT-G during screening as follows for Cohorts 1 and 2: (a) resting gradient≥50 mmHg; or (b) resting gradient≥30 mmHg and <50 mmHg with post-Valsalva LVOT-G≥50 mmHg; or as follows for Cohort 3: persistent resting LVOT obstruction (≥30 mmHg) and provoked LVOT obstruction (≥50 mmHg); 7. Left ventricular ejection fraction (LVEF)≥60% at screening; 8. […] Able to complete all screening procedures; and 13. Taking stable doses of disopyramide for >4 weeks prior to screening (Cohort 3 only).
Aortic stenosis or fixed subaortic obstruction; 2. […] Has been treated with septal reduction therapy (surgical myectomy or percutaneous alcohol septal ablation) or has plans for either treatment during the study period; 6. […] Hemoglobin<10.0 g/dL at screening; 18. […] Has received prior treatment with CK-3773274 or is currently receiving mavacamten; 21.
(§1) Patients up-titrated to Dose 2 if either of the following conditions were met on echocardiography: (1) resting LVOT-G≥30 mmHg and the biplane LVEF≥50%; or (2) resting LVOT-G<30 mmHg, post-Valsalva LVOT-G≥50 mmHg, and the biplane LVEF≥50%. Otherwise, the patient remains on Dose 1. If LVEF is <50% at Week 2, the patient was down-titrated to placebo.
(§2) Patients were escalated to the next higher dose if either of the following conditions were met on echocardiography: (1) resting LVOT-G≥30 mmHg and the biplane LVEF≥50%; or (2) resting LVOT-G<30 mmHg, post-Valsalva LVOT-G≥50 mmHg, and the biplane LVEF≥50%. Otherwise, the patient remained on the same dose. If LVEF was <50% at Week 4, the patient was returned to a prior dose level or to placebo if the patient was on Dose 1.
Echocardiograms obtained every 2 weeks and 2 weeks after the last dose were analyzed for several key structural and physiologic metrics and N-terminal prohormone of brain natriuretic peptide (NT-proBNP).
Initial results from the clinical study included data from two sequentially conducted cohorts, Cohort 1 (n=21) and Cohort 2 (n=20) which randomized treatment of patients 2:1 to CK-274 or placebo. […] Overall, treatment duration for each patient in the study was 10 weeks with an echocardiogram conducted 2 weeks after the last dose.

[3] = test system: patients with symptomatic obstructive HCM (oHCM); experiment: Phase 2 trial in oHCM: safety
From the text: as §1, §2

CCc1nc(-c2ccc3c(c2)CC[C@H]3NC(=O)c2cnn(C)c2)no1 [aficamten, (R)—N-(5-(5-ethyl-1,2,4-oxadiazol-3-yl)-2,3-dihydro-1H-inden-1-yl)-1-methyl-1H-pyrazole-4-carboxamide]
CL/F, mean ± SD ([1]; Fasted, n = 4): 2.8 ± 0.6 L/h
CL/F, mean ± SD ([1]; Fed, n = 7): 3.1 ± 0.9 L/h
Increase in Cmax when taken with food ([1]; fed vs fasted): approximately 30%
Patients with complete hemodynamic response / target goal (resting gradient <30 mmHg and post-Valsalva gradient <50 mmHg) ([2]; Cohort 1 (5, 10, 15 mg), Week 10, 11 out of 14): 79%
Average ejection fraction ([2]; Cohort 1 (n=14), baseline 72.8 (73±6)): 67±9%
Patients with complete hemodynamic response / target goal (resting gradient <30 mmHg and post-Valsalva gradient <50 mmHg) ([2]; Cohort 2 (10, 20, 30 mg), Week 10, 13 out of 14): 93%
Average ejection fraction ([2]; Cohort 2 (n=14), baseline 75.4 (75±6)): 64±8%
Patients converted from NYHA class III to class II or I ([2]; Cohorts 1 and 2): 7 patients
Time of occurrence of reductions in LVOT-G after initiating treatment ([2]; Cohorts 1 and 2): within two weeks
Time of peak reduction in LVOT-G ([2]; Cohorts 1 and 2): within two to six weeks of the end of dose titration
Patients who improved from NYHA class III to I ([2]; pooled aficamten Cohorts 1 and 2): one
LVMI mean difference vs placebo ([2]; week 10, p=0.063): 8.1 g/m^2
Patients with LVEF <50% ([3]; Cohort 1): No patients
Patients with AEs related to study drug (per investigator) ([3]; Cohort 1, 21 randomized): 3 (14.3) N (%)
Patients with TEAEs leading to drug interruption or termination ([3]; Cohort 1, 21 randomized): 0 N (%)
Patients with TESAEs ([3]; Cohort 1, 21 randomized): 2 (9.5) N (%)
Patients with at least one TEAE ([3]; Cohort 1, 21 randomized): 17 (81) N (%)
Patients with fatal TEAEs ([3]; Cohort 1, 21 randomized): 0 N (%)
TEAE of LVEF <50% (Core Lab) ([3]; Cohort 1, 21 randomized): 0 N (%)
Patients with AEs related to study drug (per investigator) ([3]; Cohort 2, 20 randomized): 1 (5.0) N (%)
Patients with TEAEs leading to drug interruption or termination ([3]; Cohort 2, 20 randomized): 0 N (%)
Patients with TESAEs ([3]; Cohort 2, 20 randomized): 0 N (%)
Patients with at least one TEAE ([3]; Cohort 2, 20 randomized): 15 (75) N (%)
Patients with fatal TEAEs ([3]; Cohort 2, 20 randomized): 0 N (%)
TEAE of LVEF <50% (Core Lab) ([3]; Cohort 2, 20 randomized): 2 (10) N (%)
Patients with transient LVEF reduction to <50% requiring down titration ([3]; Cohort 2, on 20 mg, remaining above 40%): one patient
Interruptions or discontinuations of treatment ([3]; Cohorts 1 and 2): No interruptions or discontinuations
Treatment-related serious adverse events ([3]; Cohorts 1 and 2, 10 weeks, listed as CK-274): no treatment related serious adverse events
Patients with AEs related to study drug (per investigator) ([3]; Total, 54 patients): 6 (11.1) N (%)
Patients with TEAEs leading to drug interruption or termination ([3]; Total, 54 patients): 0 N (%)
Patients with TESAEs ([3]; Total, 54 patients): 2 (3.7) N (%)
Patients with at least one TEAE ([3]; Total, 54 patients): 41 (75.9) N (%)
Patients with fatal TEAEs ([3]; Total, 54 patients): 0 N (%)
TEAE of LVEF <50% (Core Lab) ([3]; Total, 54 patients): 2 (3.7) N (%)
Time for LVEF to return towards baseline ([3]; both cohorts): within two weeks after the end of treatment
